Assay results from patent publication US20250345459A1, “COMPOUND OR SALT THEREOF, LIPID COMPOSITION, PHARMACEUTICAL COMPOSITION, AND DELIVERY CARRIER” (FUJIFILM Corporation, priority 2023, published 2025).

How the values were obtained:
[1] = tested on: EPO mRNA; assay: mRNA encapsulation rate of mRNA lipid nanoparticles; assay type: physicochemical
Method: (§1) The compounds described in Table 1, the neutral lipid, cholesterol (product name: Cholesterol HP; NIPPON FINE CHEMICAL CO., LTD.), and 1,2-dimyristoyl-rac-glycero-3-(methylpolyoxyethylene 2000) (hereinafter, called DMG-PEG2000) (product name: SUNBRIGHT® GM-020; NOF corporation) were dissolved in ethanol at a molar ratio of ionized lipid:neutral lipid:cholesterol:DMG-PEG2000=50:10:38.5:1.5 mol % such that the total lipid concentration was 12.5 mmol/L, to obtain an oil phase.
(§2) As the neutral lipid, 1,2-distearoyl-sn-glycero-3-phosphocholine (product name: COATSOME® MC-8080; NOF corporation) (hereinafter, DSPC), or L-α-dioleoylphosphatidylethanolamine (hereinafter, DOPE) (product name: COATSOME® MC-8181; NOF corporation) was used.
(§3) EPO mRNA (product name: CleanCap EPO mRNA (5 moU); TriLink) was diluted with 50 mmol/L citrate buffer having a pH 4.0 such that the weight ratio of total lipid concentration to mRNA concentration is about 20:1 to 64:1, thereby obtaining a water phase. Then, the water phase and the oil phase were mixed together using NanoAssemblr (Precision NanoSystems) such that the volume ratio of water phase:oil phase was 3:1. The mixed solution was diluted 2-fold with any of phosphate buffered physiological saline (PBS), water, or a 20 mmol/L Tris buffer solution (pH 7.4) to obtain a dispersion liquid of mRNA lipid nanoparticles. The dispersion liquid was dialyzed with 20 mmol/L Tris buffer solution (pH 7.4) containing 8% sucrose using a dialysis cassette (Slide-A-Lyzer G2, MWCO: 10 kD, Thermo Fisher Scientific) to remove ethanol, thereby obtaining EPO mRNA-encapsulating lipid nanoparticles.
EPO mRNA was diluted with MilliQ water to prepare a diluted sample in 2-fold dilution series from 100 µg/mL to […], and a calibration curve solution was prepared. 50 μL of the calibration curve solution or the mRNA lipid nanoparticles was mixed with 450 μL of methanol to prepare a measurement solution.
The absorbance of each measurement solution at 260 nm and 330 nm was measured using a UV plate reader (Multiskan Go, Thermo Fisher Scientific), the absorbance at 330 nm was subtracted from the absorbance at 260 nm, and the result was defined as the absorbance of each measurement solution. The total […] nucleic acid concentration was calculated from the calibration curve using the absorbance of each sample measurement solution.
The concentration of the outer water phase nucleic acid was quantified by a standard addition method using a QuanT-iT RiboGreen RNA Assay Kit (Thermo Fisher Scientific). First, a 20× TE buffer included in the above kit was diluted with water, thereby obtaining a 1×TE buffer. TE represents Tris/EDTA (ethylenediaminetetraacetic acid). EPO mRNA was diluted with a TE buffer such that the final concentration was 0 to 400 ng/mL to prepare a nucleic acid diluted series. 10 μL of mRNA lipid nanoparticles diluted 5-fold with TE buffer and 90 µL of a nucleic acid dilution series were mixed in a 96-well plate, 100 μL of a Ribogreen reagent diluted 200-fold with TE buffer was added to each well, and then fluorescence (excitation wavelength: 485 nm, fluorescence wavelength: 535 nm) was measured using a fluorescence plate reader (Infinite 200 Pro M nano+, TECAN). From the obtained results, the outer water phase nucleic acid concentration of each measurement solution was calculated according to the standard addition method.
By using the quantification results of the total mRNA concentration and the mRNA concentration in the outer water phase that were obtained through the above steps, the mRNA encapsulation rate of the mRNA lipid nanoparticles was calculated according to the following Equation. […]

[2] = Particle size of EPO mRNA-encapsulating lipid nanoparticles; assay type: physicochemical
Method: as §1, §2, §3
The particle size of the mRNA-encapsulating lipid nanoparticles was measured by 5-fold diluting the dispersion liquid of lipid nanoparticle with phosphate buffered physiological saline (PBS) using a particle size measurement device NanoSaqla (Otsuka Electronics Co., Ltd.).

[3] = tested on: ICR mice; assay: EPO protein expression in mice after intravenous EPO mRNA lipid nanoparticles; assay type: in vivo; settings: mRNA 0.1 mg/kg, plasma 6 hours after administration
Method: as §1, §2, §3
The dispersion liquid of mRNA lipid nanoparticles prepared in above <Preparation of EPO mRNA-encapsulating lipid nanoparticles> was intravenously administered to ICR mice at a mRNA dosage of 0.1 mg/kg. 6 hours after the administration, blood was collected from the caudal vena cava, thereby obtaining plasma. The human EPO […] was quantified by using the obtained blood plasma and Erythropoietin (EPO) Human Elisa Kit (Abcam.plc). The quantitative value is described as a relative amount of EPO protein in a case where Comparative Example 1 is 1.

[4] = LNP with neutral lipid DOPE, mixed solution PBS, Lipid/Nucleic acid (wt/wt) 64
[5] = LNP with neutral lipid DSPC, mixed solution PBS, Lipid/Nucleic acid (wt/wt) 20
[6] = neutral lipid DOPE, Lipid/Nucleic acid (wt/wt) 64, Comparative Example 1 is 1
[7] = neutral lipid DSPC, Lipid/Nucleic acid (wt/wt) 20, Comparative Example 1 is 1
[8] = LNP with neutral lipid DSPC, mixed solution 20 mM Tris, Lipid/Nucleic acid (wt/wt) 20
[9] = LNP with neutral lipid DSPC, mixed solution Water, Lipid/Nucleic acid (wt/wt) 20

SMILES	Nucleic acid encapsulation rate (%) [1, 4] [%]	Nucleic acid encapsulation rate (%) [1, 5] [%]	Particle size (nm) [2, 4] [nm]	Particle size (nm) [2, 5] [nm]	Nucleic acid encapsulation rate (%) [1, 8] [%]	Nucleic acid encapsulation rate (%) [1, 9] [%]	Particle size (nm) [2, 8] [nm]	Particle size (nm) [2, 9] [nm]	Relative amount of EPO protein (to Comparative Example 1) [3, 6]	Relative amount of EPO protein (to Comparative Example 1) [3, 7]
CCCCCCCCN(CCCCC(=O)OCC(CCCCC)CCCCC)C(=O)OCCN(CCOC(=O)N(CCCCCCCC)CCCCC(=O)OCC(CCCCC)CCCCC)CCN(CC)CC [Example 3, Bis(2-pentylheptyl) 11-(2-(diethylamino)ethyl)-6,16-dioctyl-7,15-dioxo-8,14-dioxa-6,11,16-triazahenicosanedioate]	99	94	94.5	78	–	–	–	–	13.55	6.15
CCCCCCN(CCCCC(=O)OCC(CCCCC)CCCCC)C(=O)OCCN(CCOC(=O)N(CCCCCC)CCCCC(=O)OCC(CCCCC)CCCCC)CCN(CC)CC [Example 4, bis(2-pentylheptyl) 11-(2-(diethylamino)ethyl)-6,16-dihexyl-7,15-dioxo-8,14-dioxa-6,11,16-triazahenicosanedioate]	>99	92	109.5	94	91	91	96	93	13.62	12.27
CCCCCCC(CCCCCC)COC(=O)CCCCN(CCCCCC)C(=O)OCCN(CCOC(=O)N(CCCCCC)CCCCC(=O)OCC(CCCCCC)CCCCCC)CCN(CC)CC [Example 5, Bis(2-hexyloctyl) 11-(2-(diethylamino)ethyl)-6,16-dihexyl-7,15-dioxo-8,14-dioxa-6,11,16-triazahenicosanedioate]	99	93	106.8	88	–	–	–	–	11.74	9.14
CCCCCCC(CCCC)COC(=O)CCCCN(CCCCCC)C(=O)OCCN(CCOC(=O)N(CCCCCC)CCCCC(=O)OCC(CCCC)CCCCCC)CCN(CC)CC (stereo not shown) [Example 17, Bis(2-butyloctyl) 11-(2-(diethylamino)ethyl)-6,16-dihexyl-7,15-dioxo-8,14-dioxa-6,11,16-triazahenicosanedioate]	–	80	–	165	–	–	–	–	–	5.76
CCCCCCCCCCCC(=O)OCCN(CCOC(=O)CCCCCCCCCCC)C(=O)OCCN(CCOC(=O)N(CCOC(=O)CCCCCCCCCCC)CCOC(=O)CCCCCCCCCCC)CCN(CC)CC [Example 20, 2-(2-(2-(bis(2-dodecanoyloxyethyl)carbamoyloxy)ethyl-(2-(diethylamino)ethyl)amino)ethoxycarbonyl-(2-dodecanoyloxyethyl)amino)ethyl dodecanoate]	–	82	–	151	–	–	–	–	–	1.63
CCCCCCC(CCCCCC)COC(=O)CCCCN(CCCC)C(=O)OCCN(CCOC(=O)N(CCCC)CCCCC(=O)OCC(CCCCCC)CCCCCC)CCN(CC)CC [Example 23, Bis(2-hexyloctyl) 6,16-dibutyl-11-(2-(diethylamino)ethyl)-7,15-dioxo-8,14-dioxa-6,11,16-triazahenicosanedioate]	–	79	–	180	–	–	–	–	–	1.61

The next lines start with results.

Nucleic acid encapsulation rate (%) [1, 4] [%]	Nucleic acid encapsulation rate (%) [1, 5] [%]	Particle size (nm) [2, 4] [nm]	Particle size (nm) [2, 5] [nm]	Nucleic acid encapsulation rate (%) [1, 8] [%]	Nucleic acid encapsulation rate (%) [1, 9] [%]	Particle size (nm) [2, 8] [nm]	Particle size (nm) [2, 9] [nm]	SMILES	Relative amount of EPO protein (to Comparative Example 1) [3, 6]	Relative amount of EPO protein (to Comparative Example 1) [3, 7]
–	92	–	197	–	–	–	–	CCCCCCC(CCCCCC)COC(=O)CCCCN(CCCC)C(=O)OCCN(CCCN(CC)CC)CCOC(=O)N(CCCC)CCCCC(=O)OCC(CCCCCC)CCCCCC [Example 24, Bis(2-hexyloctyl) 6,16-dibutyl-11-(3-(diethylamino)propyl)-7,15-dioxo-8,14-dioxa-6,11,16-triazahenicosanedioate]	–	1.48
–	78	–	167	–	–	–	–	CCCCCCN(CCCCCC(=O)OCC(CCCCC)CCCCC)C(=O)OCCN(CCOC(=O)N(CCCCCC)CCCCCC(=O)OCC(CCCCC)CCCCC)CCN(CC)CC [Example 25, Bis(2-pentylheptyl) 12-(2-(diethylamino)ethyl)-7,17-dihexyl-8,16-dioxo-9,15-dioxa-7,12,17-triazatricosanedioate]	–	3.56
–	91	–	178	–	–	–	–	CCCCCCN(CCCCCC(=O)OCC(CCCCC)CCCCC)C(=O)OCCN(CCCN(CC)CC)CCOC(=O)N(CCCCCC)CCCCCC(=O)OCC(CCCCC)CCCCC [Example 26, Bis(2-pentylheptyl) 12-(3-(diethylamino)propyl)-7,17-dihexyl-8,16-dioxo-9,15-dioxa-7,12,17-triazatricosanedioate]	–	4.10
–	82	–	149	–	–	–	–	CCCCCCCCCCOC(=O)CN(CC(=O)OCCCCCCCCCC)C(=O)OCCN(CCOC(=O)N(CC(=O)OCCCCCCCCCC)CC(=O)OCCCCCCCCCC)CCN(CC)CC [Example 27, Decyl 2-(2-(2-(bis(2-decoxy-2-oxo-ethyl)carbamoyloxy)ethyl-(2-(diethylamino)ethyl)amino)ethoxycarbonyl-(2-decoxy-2-oxo-ethyl)amino)acetate]	–	3.85
–	78	–	155	–	–	–	–	CCCCCCCCCCCOC(=O)CN(CC(=O)OCCCCCCCCCCC)C(=O)OCCN(CCOC(=O)N(CC(=O)OCCCCCCCCCCC)CC(=O)OCCCCCCCCCCC)CCN(CC)CC [Example 33, Diundecyl 8-(2-(diethylamino)ethyl)-4,12-dioxo-3,13-bis(2-oxo-2-(undecyloxy)ethyl)-5,11-dioxa-3,8,13-triazapentadecanedioate]	–	2.90
–	93	–	165	–	–	–	–	CCCCCCCCN(CCCCC(=O)OCC(CCCCC)CCCCC)C(=O)OCCN(CCCN(CC)CC)CCOC(=O)N(CCCCCCCC)CCCCC(=O)OCC(CCCCC)CCCCC [Example 35, Bis(2-pentylheptyl) 11-(3-(diethylamino)propyl)-6,16-dioctyl-7,15-dioxo-8,14-dioxa-6,11,16-triazahenicosanedioate]	–	6.49
